From patent US10099993B2, “Metabotropic glutamate receptor positive allosteric modulators (PAMS) and uses thereof” (Sanford-Burnham Medical Research Institute, priority 2014, dated 2018)

Key:
[1] = target: mGlu2 (Rattus norvegicus (Rat), UniProt P31421); experiment: mGlu2 GIRK thallium flux assay; conditions: for EC50: read-out: mGlu2 PAM EC50, test compound, then EC20 glutamate […] later in the presence of thallium; for EC50 / mGlu2 PAM Max: PAM mode, mean ± SEM, at least three experiments; for Emax: read-out: mGlu2 PAM Max; for mGlu2 PAM Max: % Glutamate Max;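 on all read-outs here: Cell-based assay, rate of fluorescence rise right after thallium plus agonist addition read on a kinetic imaging plate reader, normalized to vehicle and maximal agonist control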
Chain of mGlu2 (P31421 19-872): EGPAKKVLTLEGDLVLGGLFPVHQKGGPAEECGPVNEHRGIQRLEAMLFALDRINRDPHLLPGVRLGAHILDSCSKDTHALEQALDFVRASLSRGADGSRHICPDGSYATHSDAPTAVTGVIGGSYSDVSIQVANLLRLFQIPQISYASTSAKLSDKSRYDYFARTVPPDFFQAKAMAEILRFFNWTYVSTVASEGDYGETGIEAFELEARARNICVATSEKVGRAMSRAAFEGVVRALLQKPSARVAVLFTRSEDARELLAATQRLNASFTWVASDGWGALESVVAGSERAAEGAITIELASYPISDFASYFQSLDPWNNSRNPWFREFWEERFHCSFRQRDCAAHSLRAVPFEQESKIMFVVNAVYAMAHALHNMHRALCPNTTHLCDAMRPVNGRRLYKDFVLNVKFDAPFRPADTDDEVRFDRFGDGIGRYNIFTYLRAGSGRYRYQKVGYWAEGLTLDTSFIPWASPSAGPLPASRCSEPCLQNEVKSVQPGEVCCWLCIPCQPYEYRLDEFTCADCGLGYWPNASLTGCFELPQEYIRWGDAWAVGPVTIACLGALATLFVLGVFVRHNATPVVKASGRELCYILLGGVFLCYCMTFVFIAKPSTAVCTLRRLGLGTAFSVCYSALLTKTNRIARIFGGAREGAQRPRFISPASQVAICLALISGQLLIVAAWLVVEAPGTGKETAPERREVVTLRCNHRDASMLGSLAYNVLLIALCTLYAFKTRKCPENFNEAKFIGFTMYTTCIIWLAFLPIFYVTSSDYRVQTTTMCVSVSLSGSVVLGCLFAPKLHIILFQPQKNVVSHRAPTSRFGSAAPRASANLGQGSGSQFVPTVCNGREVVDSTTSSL

[2] = target: mGlu3 (Rattus norvegicus (Rat), UniProt P31422); experiment: mGlu3 GIRK thallium flux assay; conditions: for EC50: read-out: mGlu3 PAM EC50, test compound, then EC20 glutamate […] later in the presence of thallium; for EC50 / mGlu3 PAM Max: PAM mode, mean ± SEM; for Emax: read-out: mGlu3 PAM Max; for mGlu3 PAM Max: % Glutamate Max;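 on all read-outs here: kinetic fluorescence slope read shortly after thallium plus agonist addition, scaled between vehicle and maximal agonist control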
Chain of mGlu3 (P31422 23-879): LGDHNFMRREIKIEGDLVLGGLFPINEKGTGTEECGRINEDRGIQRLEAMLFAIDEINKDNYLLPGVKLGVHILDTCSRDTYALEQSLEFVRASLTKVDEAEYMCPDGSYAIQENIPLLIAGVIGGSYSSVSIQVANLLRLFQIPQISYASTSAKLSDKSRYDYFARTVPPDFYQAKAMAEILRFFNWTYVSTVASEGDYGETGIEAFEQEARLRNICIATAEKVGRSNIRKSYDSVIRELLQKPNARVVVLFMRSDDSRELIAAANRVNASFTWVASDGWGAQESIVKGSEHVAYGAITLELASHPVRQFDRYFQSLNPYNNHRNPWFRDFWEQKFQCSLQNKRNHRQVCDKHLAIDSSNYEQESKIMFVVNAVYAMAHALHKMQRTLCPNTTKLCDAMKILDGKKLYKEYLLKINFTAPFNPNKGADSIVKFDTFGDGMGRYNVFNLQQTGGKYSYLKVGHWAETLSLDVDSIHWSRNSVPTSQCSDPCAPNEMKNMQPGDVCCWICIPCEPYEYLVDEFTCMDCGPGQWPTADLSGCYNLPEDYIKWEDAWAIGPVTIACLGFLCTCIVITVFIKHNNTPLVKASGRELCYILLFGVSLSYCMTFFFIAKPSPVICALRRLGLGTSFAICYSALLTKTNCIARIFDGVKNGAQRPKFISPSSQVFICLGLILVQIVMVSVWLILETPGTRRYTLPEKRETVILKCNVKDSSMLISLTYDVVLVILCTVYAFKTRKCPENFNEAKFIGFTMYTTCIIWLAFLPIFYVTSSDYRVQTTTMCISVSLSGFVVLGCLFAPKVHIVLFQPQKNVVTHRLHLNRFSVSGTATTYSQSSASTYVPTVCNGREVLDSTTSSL

COC(=O)c1ccc(OCc2cccc(COc3ccc(C(=O)CC4CCCC4)c(C)c3C)c2)cc1 [compound 155]
EC50 [1]: > 30000 nM | EC50 [2]: > 30000 nM

Cc1c(OCc2cccc(-c3cccc(C(=O)NS(C)(=O)=O)c3)c2)ccc(C(=O)CC(C)(C)C)c1O [compound 156, 3′-((4-(3,3-Dimethylbutanoyl)-3-hydroxy-2-methylphenoxy)methyl)-N-(methylsulfonyl)-[1,1′-biphenyl]-3-carboxamide]
Emax [1]: 105 ± 2.1% | Emax [2]: 103 ± 1.7%

Cc1c(OCc2cccc(-c3cccc(-c4noc(=O)[nH]4)c3)c2)ccc(C(=O)CC(C)(C)C)c1O [compound 157, 3-(3′-((4-(3,3-Dimethylbutanoyl)-3-hydroxy-2-methylphenoxy)methyl)-[1,1′-biphenyl]-3-yl)-1,2,4-oxadiazol-5(4H)-one]
Emax [1]: 111 ± 6.6% | Emax [2]: 105 ± 2.8%

Cc1c(OCc2ccc(-c3cccc(C(=O)O)c3)o2)ccc(C(=O)CC(C)(C)C)c1O [compound 158, 3-(5-((4-(3,3-Dimethylbutanoyl)-3-hydroxy-2-methylphenoxy)methyl)furan-2-yl)benzoic acid]
EC50 [1]: 328 nM | Emax [1]: 106 ± 3.8% | EC50 [2]: 421 ± 5 nM | Emax [2]: 110 ± 3.9%

Cc1c(OCc2cccc(-c3cccc(C(=O)O)c3)n2)ccc(C(=O)CC(C)(C)C)c1O [compound 159, 3-(6-((4-(3,3-Dimethylbutanoyl)-3-hydroxy-2-methylphenoxy)methyl)pyridin-2-yl)benzoic acid]
EC50 [1]: 929 ± 12 nM | Emax [1]: 104 ± 2.5% | EC50 [2]: 967 ± 8 nM | Emax [2]: 115 ± 2.1%

Cc1c(OCc2ncc(-c3cccc(C(=O)O)c3)s2)ccc(C(=O)CC(C)(C)C)c1O [compound 161, 3-(2-((4-(3,3-Dimethylbutanoyl)-3-hydroxy-2-methylphenoxy)methyl)thiazol-5-yl)benzoic acid]
EC50 [1]: 1878 ± 17 nM | Emax [1]: 98.2 ± 5.2% | EC50 [2]: 3180 ± 68 nM | Emax [2]: 114 ± 3.9%

Cc1c(OCc2cc(-c3cccc(C(=O)O)c3)cs2)ccc(C(=O)CC(C)(C)C)c1O [compound 162, 3-(5-((4-(3,3-Dimethylbutanoyl)-3-hydroxy-2-methylphenoxy)methyl)thiophen-3-yl)benzoic acid]
Emax [1]: 102 ± 3.5% | Emax [2]: 106 ± 6.4%

Cc1c(OCc2cnc(-c3cccc(C(=O)O)c3)cn2)ccc(C(=O)CC(C)(C)C)c1O [compound 163, 3-(5-((4-(3,3-Dimethylbutanoyl)-3-hydroxy-2-methylphenoxy)methyl)pyrazin-2-yl)benzoic acid]
EC50 [1]: 1450 ± 15 nM | Emax [1]: 105 ± 1.6% | EC50 [2]: 268 ± 5 nM | Emax [2]: 113 ± 5.4%

Cc1c(OCc2cccc(-c3cccc(S(=O)(=O)O)c3)c2)ccc(C(=O)CC(C)(C)C)c1O [compound 164, 3′-((4-(3,3-Dimethylbutanoyl)-3-hydroxy-2-methylphenoxy)methyl)-[1,1′-biphenyl]-3-sulfonic acid]
Emax [1]: 101 ± 2.8% | Emax [2]: 103 ± 1.9%

Cc1c(OCc2nnc(-c3cccc(C(=O)O)c3)s2)ccc(C(=O)CC(C)(C)C)c1O [compound 165, 3-(5-((4-(3,3-Dimethylbutanoyl)-3-hydroxy-2-methylphenoxy)methyl)-1,3,4-thiadiazol-2-yl)benzoic acid]
EC50 [1]: 1658 ± 8 nM | Emax [1]: 85.6 ± 1.3% | EC50 [2]: 1410 ± 34 nM | Emax [2]: 95 ± 2.5%

Cc1c(OCc2cccc(-c3ccc(Cl)c(C(=O)O)c3)c2)ccc(C(=O)CC(C)C)c1O [compound 169]
mGlu2 PAM Max [1]: 77.6 ± 1.8% | EC50 [1]: 278 ± 49 nM | mGlu3 PAM Max [2]: 76.1 ± 5.1% | EC50 [2]: 2990 ± 359 nM

Cc1c(OCc2cccc(-c3ccc(Cl)c(C(=O)O)c3)c2)ccc(C(=O)CC(C)C)c1C [compound 170]
mGlu2 PAM Max [1]: 70.2 ± 2.9% | EC50 [1]: 815 ± 50 nM | EC50 [2]: > 30000 nM

Cc1c(OCc2cccc(-c3ccc(Cl)c(C(=O)O)c3)c2)ccc(C(=O)CC2CCCC2)c1C [compound 171]
mGlu2 PAM Max [1]: 12.3 ± 1.2% | EC50 [1]: > 30000 nM | mGlu3 PAM Max [2]: 10.7 ± 1.0% | EC50 [2]: > 30000 nM

Cc1c(OCc2cccc(-c3ccc(Cl)c(C(=O)O)c3)c2)ccc(C(=O)CC(C)C)c1O [compound 172]
mGlu2 PAM Max [1]: 73.7 ± 1.2% | EC50 [1]: 763 ± 40 nM | EC50 [2]: > 10000 nM
